According to patent US20220313708A1, “COMBINATION PRODUCT CONTAINING LIMONOID COMPOUND AND SGLT-2 INHIBITOR” (ZHEJIANG YANGSHENGTANG INSTITUTE OF NATURAL MEDICATION CO., …, priority 2019, published 2022):

Key:
Assay type in all cases: in vivo
[1] = tested on: mouse pancreatic islet β-cell injury model (STZ); experiment: Blood glucose in STZ mouse pancreatic islet β-cell injury model (Example 1, canagliflozin); settings: STZ ICR mice; single agent 0.02 g/kg per day by gavage, two weeks; 1 h after last administration; mean ± SD
Description: (§1) In this example, a mouse pancreatic islet β-cell injury model was established by modeling ICR mice with streptozotocin (STZ) (Li Nan et al., Protective effect of pine pollen on kidney damage in diabetic nephropathy mice, Science and Technology Review, 2014, 32 (4/5): 95-99), and used to complete the evaluation of hypoglycemic effect in animals (this model could simulate pancreatic islet β-cell damage state of type I and type II diabetics). The limonoid compound was selected from the group consisting of limonin, isolimonic acid, limonin glycoside, and isolimonic acid glycoside, and canagliflozin single administration group, limonin single administration group, isolimonic acid single administration group, limonin glycoside singe administration group, isolimonic acid glycoside singe administration group, and respective combination thereof with canagliflozin administration groups were set.
(§2) Conditions of experimental feeding: ICR mice (20±2 g), aged 6 weeks, purchased from Zhejiang Academy of Medical Sciences, and subjected to experimental feeding after 7 days of preliminary feeding. It should be noted that the conditions for raising the mice were as follows: the temperature was 23±1° C., the humidity was 55±10%, the lights were turned on between 7 am and 7 pm (the lights were turned off at other time), and the mice were allowed to freely take in water and feed. […]

[2] = tested on: mouse type II diabetes model (db/db mice); experiment: Blood glucose in db/db mouse type II diabetes model (Example 2, dapagliflozin); settings: single agent 0.04 g/kg per day by gavage, two weeks, 1 h after last administration, mean ± SD
Description: (§3) In the present example, db/db mice (line name BKS.Cg-Dock7^m+/+Lepr^db/Nju) were used to perform hypoglycemic efficacy evaluation test of animals (blood glucose level and leptin). The limonoid compound was selected from obacunone, isoobacunoic acid and obacunone glycoside, and dapagliflozin single administration group, obacunone single administration group, isoobacunoic acid single administration group, obacunone glycoside single administered group, and respective combination thereof with dapagliflozin administration groups were set. Conditions for experimental feeding: as type II diabetes model mice, 6-week-old SPF-grade db/db mice were purchased from the Nanjing Model Biology Institute, and subjected to experimental feeding after 7 days of preliminary feeding. It should be noted that the conditions for raising the mice were as follows: the temperature was 23±1° C., the humidity was 55±10%, the lights were turned on between 7 am and 7 pm (the lights were turned off at other time), and the mice were allowed to freely take in water and feed. […] The data were expressed as mean and standard deviation. The data before and after were analyzed by t-test, and P<0.05 was considered statistically significant.

[3] = tested on: mouse type II diabetes model (db/db mice); experiment: Serum leptin by ELISA in db/db mouse type II diabetes model (Example 2); settings: single agent 0.04 g/kg per day by gavage, two weeks, mean ± SD
Description: as §3

[4] = tested on: mouse pancreatic islet β-cell injury model (STZ); experiment: Blood glucose in STZ mouse pancreatic islet β-cell injury model (Example 3, empagliflozin); settings: STZ ICR mice; single agent 0.1 g/kg per day by gavage, two weeks; 1 h after last administration; mean ± SD
Description: as §1, with “ichangin, ichangensin, and ichangin” for “limonin, isolimonic acid, limonin”, “empagliflozin” for “isolimonic acid glycoside, and canagliflozin”, “ichangin” for “limonin”, “ichangensi” for “isolimonic acid”, “ichangin” for “limonin glycoside singe administration group, isolimonic acid”, “empagliflozin” for “canagliflozin”
as §2

[5] = tested on: mouse type II diabetes model (db/db mice); experiment: Blood glucose in db/db mouse type II diabetes model (Example 4, ipragliflozin); settings: single agent 0.2 g/kg per day by gavage, two weeks, 1 h after last administration, mean ± SD
Description: (§4) In the present embodiment, the limonoid compound was selected nomilin, deacetylnomilin, nomilin acid, deacetylnomilin acid glycoside, and ipragliflozin single administration group, nomilin single administration group, deacetylnomilin single administration group, nomilin acid single administered group, deacetylnomilin acid glycoside single administration group, and respective combination thereof with ipragliflozin administration groups were set.
(§5) Conditions for experimental feeding: as type II diabetes model mice, 6-week-old SPF-grade db/db mice were purchased from the Nanjing Model Biology Institute, and subjected to experimental feeding after 7 days of preliminary feeding. It should be noted that the conditions for raising the mice were as follows: the temperature was 23±1° C., the humidity was 55±10%, the lights were turned on between 7 am and 7 pm (the lights were turned off at other time), and the mice were allowed to freely take in water and feed. The experimental feed was mouse growth-stable feed (GB M2118), and the daily feeding and management of the animals were under the responsibility of the animal security department, which provided the animals with sufficient diet and fresh drinking water daily.
(§6) Experimental grouping: male db/db mice (20±2 g) were selected, 18 male mice in each group were tested, and drinking bottles were sterilized weekly. […]

[6] = tested on: mouse type II diabetes model (db/db mice); experiment: Serum insulin by ELISA in db/db mouse type II diabetes model (Example 4); settings: single agent 0.2 g/kg per day by gavage, two weeks, mean ± SD
Description: as §4, §5, §6

## Cc1ccc([C@@H]2O[C@H](CO)[C@@H](O)[C@H](O)[C@H]2O)cc1Cc1ccc(-c2ccc(F)cc2)s1 [Canagliflozin, canagliflozin]
[1]
  Blood glucose value: 19.1 ± 4.1 mmol/L

## CCOc1ccc(Cc2cc([C@@H]3O[C@H](CO)[C@@H](O)[C@H](O)[C@H]3O)ccc2Cl)cc1 [Dapagliflozin, dapagliflozin]
[2]
  Blood glucose value: 12.0 ± 2.9 mmol/L
[3]
  Leptin: 25.34 ± 5.26 pg/mL

## OC[C@H]1O[C@@H](c2ccc(Cl)c(Cc3ccc(O[C@H]4CCOC4)cc3)c2)[C@H](O)[C@@H](O)[C@@H]1O [Empagliflozin, empagliflozin]
[4]
  Blood glucose value: 13.9 ± 2.0 mmol/L

## OC[C@H]1O[C@@H](c2ccc(F)c(Cc3cc4ccccc4s3)c2)[C@H](O)[C@@H](O)[C@@H]1O [Ipragliflozin, ipragliflozin]
[5]
  Blood glucose value: 10.3 ± 2.3 mmol/L
[6]
  Insulin: 7.61 ± 1.03 pg/mL
